Results reported in patent publication US20240122847A1, “ORAL POLYPEPTIDE FORMULATIONS” (Bhami's Research Laboratory, Pvt. Ltd., priority 2022, published 2024).

How the values were obtained:
[1] = test system: serum calcium, serum phosphorous and alkaline phosphatase; assay: Pharmacodynamics of PTH in rats; format: in vivo, SD rats; design: sCa (serum calcium): unit not given here; conditions: for sALP (serum alkaline phosphatase) / sCa (serum calcium) / sP (serum phosphorous): subcutaneous 40 μg
From the text: The serum calcium and serum phosphorous were estimated using Siemen's […] 744 Electrolyte Analyzer and for serum ALP Siemen's Dimension Expand Plus was used.
The pharmacodynamics data in subcutaneous and buccal/Sublingual groups of rats are shown in Tables 27 and 28 and in FIGS. 67 and 68.

[2] = Pharmacokinetics of PTH (1-34) in SD rats, sugar truffle buccal/sublingual vs SC, plasma PTH (1-34) ELISA
Experimental: Pharmacokinetic analysis was conducted in female rats weighing 220-250 grams for 2 days. Rats in the oral treatment group was either fasted overnight or fed prior to the test sample administration. All the test animals in the treatment groups were administered with respective test formulation to the pre-designated animals. The animal was restrained and its head was held vertically, the jaws were pulled away, the tongue was gently lifted with a forceps followed by placement of a polypeptide formulation as described herein buccally/sublingually. After placing a polypeptide formulation as described herein, the snout was held together for about 1-2 mins to prevent the chewing of the polypeptide formulation. The time of dosage of each animal was noted. Blood samples were collected at aforementioned time points 0 min, 15 min, 30 min, 1 hour, 2 hours, 4 hours, 8 hours, 12 hours, 24 hours, and 48 hours into an EDTA-blood collection tubes for the separation of plasma to determine PTH (1-34) levels by ELISA. Plasma samples collected at different time points were analyzed by ELISA kit according to Creative Diagnostics protocol. This kit is based on sandwich enzyme-linked immuno-sorbent assay technology. An antibody, anti-PTH (1-34) was pre-coated onto a 96-well plate. Standards, test samples, and biotin-conjugated reagent were added to the wells and incubated. The HRP-conjugated reagent was then added, and the whole plate was incubated. Unbound conjugates were removed using wash buffer at each stage. TMB substrate was used to quantify the HRP enzymatic reaction. After TMB substrate was added, only wells that contain sufficient PTH (1-34) will produce a blue colored product, which then changes to yellow after adding the acidic stop solution. The intensity of the yellow color is proportional to the PTH (1-34) amount bound on the plate. The Optical Density (OD) was measured spectrophotometrically at 450 nm in a microplate reader, from which the concentration of PTH (1-34) can be calculated.
PTH (1-34) was analyzed in plasma using a specific enzyme linked immunosorbent assay (ELISA). Pharmacokinetic endpoints were determined using noncompartmental methods using PK Solutions software. AUC was approximated using the trapezoidal rule on the observed concentrations. C max for each PTH (1-34) dose was derived as the maximum of all valid concentrations, and t max was then determined as the corresponding time point to C max. The terminal elimination rate constant (λz) was estimated by log-linear regression on the terminal part of the concentration-time curve, and t ½ was then calculated as t ½=ln 2/λz.

[3] = female, SD, rat, plasma, 0.49 mg
[4] = female, SD, rat, plasma, sc, 0.04 mg

Which “PD effect on serum calcium, serum phosphorous and serum alkaline phosphatase” value ([1]; PTH given by buccal/sublingual route) does the source give for CC[C@H](C)[C@H](NC(=O)[C@H](CCC(=O)O)NC(=O)[C@H](CO)NC(=O)[C@@H](NC(=O)[C@@H](N)CO)C(C)C)C(=O)N[C@@H](CCC(N)=O)C(=O)N[C@@H](CC(C)C)C(=O)N[C@@H](CCSC)C(=O)N[C@@H](Cc1cnc[nH]1)C(=O)N[C@@H](CC(N)=O)C(=O)N[C@@H](CC(C)C)C(=O)NCC(=O)N[C@@H](CCCCN)C(=O)N[C@@H](Cc1cnc[nH]1)C(=O)N[C@@H](CC(C)C)C(=O)N[C@@H](CC(N)=O)C(=O)N[C@@H](CO)C(=O)N[C@@H](CCSC)C(=O)N[C@@H](CCC(=O)O)C(=O)N[C@@H](CCCN=C(N)N)C(=O)N[C@H](C(=O)N[C@@H](CCC(=O)O)C(=O)N[C@@H](Cc1c[nH]c2ccccc12)C(=O)N[C@@H](CC(C)C)C(=O)N[C@@H](CCCN=C(N)N)C(=O)N[C@@H](CCCCN)C(=O)N[C@@H](CCCCN)C(=O)N[C@@H](CC(C)C)C(=O)N[C@@H](CCC(N)=O)C(=O)N[C@@H](CC(=O)O)C(=O)N[C@H](C(=O)N[C@@H](Cc1cnc[nH]1)C(=O)N[C@@H](CC(N)=O)C(=O)N[C@@H](Cc1ccccc1)C(=O)O)C(C)C)C(C)C [PTH (1-34)] here?
The value was “clearly indicates the effect on serum calcium, serum phosphorous and serum alkaline phosphatase”.

What about the “sALP (serum alkaline phosphatase)” value ([1]; time 0 hours) of the same compound?
The value was 98.5 ± 33.23.

What about the “sCa (serum calcium)” value ([1]; time 0 hours) of the same compound?
Its value is 9.05 ± 0.07.

And the “sP (serum phosphorous)” value ([1]; time 0 hours)?
Its value is 9.3 ± 0.28.

And the “sALP (serum alkaline phosphatase)” value ([1]; time 0.08 hours)?
The value was 131 ± 1.41.

And the “sCa (serum calcium)” value ([1]; time 0.08 hours)?
The value was 9.65 ± 0.77.

What about the “sP (serum phosphorous)” value ([1]; time 0.08 hours) of the same compound?
Its value is 8.85 ± 0.07.

What about the “sALP (serum alkaline phosphatase)” value ([1]; time 0.5 hours) of the same compound?
Its value is 136 ± 7.07.

What about the “sCa (serum calcium)” value ([1]; time 0.5 hours) of the same compound?
The value was 10.2 ± 0.28.

What about the “sP (serum phosphorous)” value ([1]; time 0.5 hours) of the same compound?
The value was 8.45 ± 0.21.

And the “sALP (serum alkaline phosphatase)” value ([1]; time 1 hours)?
Its value is 142 ± 5.65.

And the “sCa (serum calcium)” value ([1]; time 1 hours)?
The value was 10.35 ± 0.35.

And the “sP (serum phosphorous)” value ([1]; time 1 hours)?
The value was 4.85 ± 0.91.

What about the “sALP (serum alkaline phosphatase)” value ([1]; time 2 hours) of the same compound?
Its value is 184.5 ± 16.26.

What about the “sCa (serum calcium)” value ([1]; time 2 hours) of the same compound?
Its value is 10.45 ± 0.35.

And the “sP (serum phosphorous)” value ([1]; time 2 hours)?
The value was 5.75 ± 1.06.

And the “sALP (serum alkaline phosphatase)” value ([1]; time 4 hours)?
The value was 151 ± 21.21.

And the “sCa (serum calcium)” value ([1]; time 4 hours)?
The value was 9.45 ± 0.21.

And the “sP (serum phosphorous)” value ([1]; time 4 hours)?
The value was 8.65 ± 0.21.

What about the “sALP (serum alkaline phosphatase)” value ([1]; time 8 hours) of the same compound?
The value was 131.5 ± 14.84.

What about the “sCa (serum calcium)” value ([1]; time 8 hours) of the same compound?
Its value is 9.25 ± 0.35.

What about the “sP (serum phosphorous)” value ([1]; time 8 hours) of the same compound?
Its value is 8.95 ± 0.07.

And the “sALP (serum alkaline phosphatase)” value ([1]; time 24 hours)?
The value was 111 ± 21.21.

What about the “sCa (serum calcium)” value ([1]; time 24 hours) of the same compound?
The value was 9.05 ± 0.21.

What about the “sP (serum phosphorous)” value ([1]; time 24 hours) of the same compound?
Its value is 9.35 ± 0.07.

And the level at 5 min [2, 3]?
Its level at 5 min is 3510 pg/mL.

And the level at 0.5 h [2, 3]?
Its level at 0.5 h is 3070 pg/mL.

And the level at 1 h [2, 3]?
The level at 1 h was 2870 pg/mL.

And the level at 2 h [2, 3]?
The level at 2 h was 1630 pg/mL.

What about the level at 4 h [2, 3] of the same compound?
Its level at 4 h is 214 pg/mL.

And the level at 8 h [2, 3]?
Its level at 8 h is 33.7 pg/mL.

And the level at 24 h [2, 3]?
Its level at 24 h is 6.02 pg/mL.

What about the bioavailability ([2]; female, SD, rat, plasma, other: buccal/sublingual, 0.49 mg) of the same compound?
The bioavailability was 7%.

What about the MRT last [2, 4] of the same compound?
Its MRT last is 2.02 h.

And the Tmax [2, 4]?
Its Tmax is 0.5 h.

What about the half-life [2, 4] of the same compound?
The half-life was 4.46 h.

What about the level at 0 h [2, 4] of the same compound?
The level at 0 h was 0.002 pg/mL.

And the level at 5 min [2, 4]?
Its level at 5 min is 403 pg/mL.

What about the level at 0.5 h [2, 4] of the same compound?
Its level at 0.5 h is 3400 pg/mL.

What about the level at 1 h [2, 4] of the same compound?
Its level at 1 h is 3270 pg/mL.

And the level at 2 h [2, 4]?
The level at 2 h was 2930 pg/mL.

And the level at 4 h [2, 4]?
The level at 4 h was 167 pg/mL.

What about the level at 8 h [2, 4] of the same compound?
The level at 8 h was 50.9 pg/mL.

And the level at 24 h [2, 4]?
Its level at 24 h is 6.2 pg/mL.

What about the AUC(0-inf) ([2]; female, SD, rat, plasma, sc, 0.04 mg, AUC 0-inf_obs, rats) of the same compound?
The AUC(0-inf) was 9.61 ng·h/mL.

What about the AUC(0-inf) ([2]; female, SD, rat, plasma, sc, 0.04 mg, AUC 0-inf_pred, rats) of the same compound?
The AUC(0-inf) was 9.61 ng·h/mL.

And the AUC 0-t ([2]; female, SD, rat, plasma, sc, 0.04 mg, AUC 0-t, rats)?
The AUC 0-t was 9.57 ng·h/mL.

What about the AUC(t-inf) ([2]; female, SD, rat, plasma, sc, 0.04 mg, AUC t-inf_obs, rats) of the same compound?
The AUC(t-inf) was 0.0399 ng·h/mL.

What about the AUC(t-inf) ([2]; female, SD, rat, plasma, sc, 0.04 mg, AUC t-inf_pred, rats) of the same compound?
Its AUC(t-inf) is 0.0375 ng·h/mL.

And the MRT inf ([2]; female, SD, rat, plasma, sc, 0.04 mg, MRT 0-inf_obs, rats)?
Its MRT inf is 2.13 h.

What about the MRT inf ([2]; female, SD, rat, plasma, sc, 0.04 mg, MRT 0-inf_pred, rats) of the same compound?
Its MRT inf is 2.13 h.

And the “Mean PTH (1-34) levels” value ([2]; rats, GII - Buccal/sublingual 0.49 mg, 0 min)?
The value was 0.000 pg/mL.

And the “AUMC 0-inf_obs” value ([2]; rats, SC, 0.04 mg)?
The value was 20516.940 pg/mL*h^2.

And the “AUMC 0-inf_pred” value ([2]; rats, SC, 0.04 mg)?
The value was 20442.395 pg/mL*h^2.

And the “AUMC 0-t” value ([2]; rats, SC, 0.04 mg)?
The value was 19300.931 pg/mL*h^2.

What about the “AUMC 0-t/0-inf_obs” value ([2]; rats, SC, 0.04 mg) of the same compound?
Its value is 0.941.

What about the “AUMC 0-t/0-inf_pred” value ([2]; rats, SC, 0.04 mg) of the same compound?
The value was 0.944.

And the “AUMC t-inf_obs” value ([2]; rats, SC, 0.04 mg)?
The value was 1216.009 pg/mL*h^2.

And the “AUMC t-inf_pred” value ([2]; rats, SC, 0.04 mg)?
The value was 1141.464 pg/mL*h^2.

What about the Clast_obs ([2]; rats, SC, 0.04 mg) of the same compound?
The Clast_obs was 6.201 pg/mL.

And the Clast_pred ([2]; rats, SC, 0.04 mg)?
The Clast_pred was 5.821 pg/mL.

And the Cmax ([2]; rats, SC, 0.04 mg)?
Its Cmax is 3401.092 pg/mL.

What about the Lambda_z ([2]; rats, SC, 0.04 mg) of the same compound?
Its Lambda_z is 0.155 h⁻¹.

What about the Tlag ([2]; rats, SC, 0.04 mg) of the same compound?
The Tlag was 0.000 h.

What about the Tlast ([2]; rats, SC, 0.04 mg) of the same compound?
The Tlast was 24.000 h.
